By IC50 is commonly meant the concentration that gives 50% inhibition.

From patent US20120115852A1, “HETEROCYCLIC COMPOUNDS AS AUTOTAXIN INHIBITORS” (Merck Patent Gesellschaft Mit Beschrankter Haftung, priority 2009, published 2012) come the findings set out here.

The first assay addresses T1, recombinant autotaxin (Homo sapiens, UniProt Q13822).
T1 construct: made in house; host or cells: Hi5 insect cells (baculovirus)
The assay can be described thus: Autotaxin test (enzyme test), Amplex Red fluorescence with LPC substrate. Type of assay: biochemical. Conditions: 10 μM compound; autotaxin inhibition (enzyme test); read-out: % Control at 10 μM. A digest of the protocol: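 Purified recombinant autotaxin (baculovirus Hi5-expressed) pre-incubated with compound 30 min at 22° C, then LPC (final 75 μM) added and reacted 90 min at 37° C in Tris pH 8 buffer with CaCl2. Choline released was coupled via alkaline phosphatase, choline oxidase and peroxidase to Amplex Red; resorufin fluorescence read in kinetic mode (ex 485/em 612 nm).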
Turning to `O=C1Nc2ccc(-c3ccc(Cl)cc3)cc2CN2CCN(C(=O)[C@@H]3CCCN3C3CCNCC3)CC12` (stereo partly drawn) [Compound A176], the remaining activity at 10 µM was 63%.
Same read-out and setting: as for `CS(=O)(=O)N1CCN2C(=O)c3cc(-c4ccccc4F)ccc3NC(=O)[C@H]2C1` [Compound B1], the figure is 75%; as for `COc1ccc(-c2ccc3c(c2)C(=O)N2CCN(C(=O)[C@@H](O)c4ccccc4)C[C@@H]2C(=O)N3)cc1` [Compound B2], 84%.
On the same count and under the same terms, as for `O=C1Nc2ccc(-c3ccccc3F)cc2C(=O)N2CCN(C(=O)[C@@H](O)c3ccccc3)C[C@H]12` [Compound B3], the figure is 47%; as for `O=C(O)CCC(=O)N1CCN2C(=O)c3cc(-c4ccc(Cl)cc4)ccc3NC(=O)[C@@H]2C1` [Compound B4], 71%; as for `O=C1Nc2ccc(-c3ccc(Cl)cc3)cc2C(=O)N2CCN(C(=O)C3CCNCC3)C[C@H]12` [Compound B5], 64%.
On the same count and under the same terms, the result for `O=C1Nc2ccc(-c3ccccc3)cc2C(=O)N2CCN(C(=O)C3CCCC3)C[C@@H]12` [Compound B6] reads 85%; that for `O=C(O)CCCC(=O)N1CCN2C(=O)c3cc(-c4ccco4)ccc3NC(=O)[C@H]2C1` [Compound B7], 70%.
On to `CC(C)(CC(=O)O)CC(=O)N1CCN2C(=O)c3cc(-c4ccc(Cl)cc4)ccc3NC(=O)[C@H]2C1` [Compound B8], for which the remaining activity at 10 µM turned out to be 70%.
The same measure, in the same setting: the result for `O=C1Nc2ccc(-c3ccc4c(c3)OCO4)cc2C(=O)N2CCN(C(=O)[C@@H]3CSCN3)C[C@H]12` [Compound B9] reads 74%.
The same measure, in the same setting: the result for `O=C1Nc2ccc(-c3ccccc3F)cc2C(=O)N2CCN(C(=O)C3CCCC3)C[C@@H]12` [Compound B10] reads 76%.
Same read-out and setting: as for `O=C1Nc2ccc(-c3cccc(C(F)(F)F)c3)cc2C(=O)N2CCN(C(=O)c3ccccc3)C[C@H]12` [Compound B11], the figure is 85%.
For `O=C1Nc2ccc(-c3ccc4c(c3)OCO4)cc2C(=O)N2CCN(C(=O)c3cccnc3)C[C@H]12` [Compound B12], the remaining activity at 10 µM came to 84%.
Same read-out and setting: the result for `O=C1Nc2ccc(-c3ccccc3)cc2C(=O)N2CCN(C(=O)C3CCCCC3)C[C@H]12` [Compound B13] reads 53%; that for `O=C1Nc2ccc(-c3ccc(Cl)cc3)cc2C(=O)N2CCN(C(=O)CO)C[C@H]12` [Compound B14], 80%; that for `O=C1Nc2ccc(-c3ccccc3)cc2C(=O)N2CCN(C(=O)c3cccs3)C[C@H]12` [Compound B15], 79%.
Still for that read-out and setting: the result for `O=C1Nc2ccc(-c3ccco3)cc2C(=O)N2CCN(C(=O)C3CC3)C[C@H]12` [Compound B16] reads 82%.
On to `O=C1Nc2ccc(-c3ccc(Cl)cc3)cc2C(=O)N2CCN(C(=O)C3CCCCC3)C[C@H]12` [Compound B17], for which the remaining activity at 10 µM turned out to be 26%.
Still for that read-out and setting: as for `O=C1Nc2ccc(-c3ccccc3)cc2C(=O)N2CCN(C(=O)[C@@H]3CSCN3)C[C@H]12` [Compound B18], the figure is 56%; as for `O=C1Nc2ccc(-c3ccccc3F)cc2C(=O)N2CCN(C(=O)C3CCCCC3)C[C@H]12` [Compound B19], 41%; as for `O=C1Nc2ccc(-c3ccc(Cl)cc3)cc2C(=O)N2CCN(C(=O)c3cccs3)C[C@H]12` [Compound B20], 71%.
Same read-out and setting: the result for `O=C1Nc2ccc(-c3ccc(Cl)cc3)cc2C(=O)N2CCN(C(=O)COc3ccccc3)C[C@H]12` [Compound B21] reads 57%; that for `COc1ccc(-c2ccc3c(c2)C(=O)N2CCN(C(=O)[C@@H]4CSCN4)C[C@@H]2C(=O)N3)cc1` [Compound B22], 71%; that for `O=C1Nc2ccc(-c3ccccc3F)cc2C(=O)N2CCN(C(=O)c3cccs3)C[C@H]12` [Compound B23], 76%.
The same measure, in the same setting: the result for `CN(C)c1ccc(C(=O)N2CCN3C(=O)c4cc(-c5ccccc5F)ccc4NC(=O)[C@H]3C2)cc1` [Compound B24] reads 83%; that for `COc1ccc(-c2ccc3c(c2)C(=O)N2CCN(C(=O)CC(C)(C)C)C[C@@H]2C(=O)N3)cc1` [Compound B25], 47%.
With `O=C1Nc2ccc(-c3ccc(Cl)cc3)cc2C(=O)N2CCN(C(=O)c3ccccc3)CC12` (stereo not drawn) [Compound B27], the remaining activity at 10 µM amounted to 59%.

The assay is the same for the next values; noted with them: autotaxin inhibition (enzyme test).
As for `O=C1Nc2ccc(-c3ccc(Cl)cc3)cc2CN2CCN(C(=O)[C@@H]3CCCN3C3CCNCC3)CC12` (stereo partly drawn) [Compound A176], the IC50 is more than 1000 nM.
On the same count and under the same terms, as for `O=C1Nc2ccc(-c3ccc(Cl)cc3)cc2C(=O)N2CCN(C(=O)C3CCCCC3)C[C@H]12` [Compound B17], the figure is more than 1000 nM.
Same read-out and setting: the result for `O=C1Nc2ccc(-c3ccccc3F)cc2C(=O)N2CCN(C(=O)C3CCCCC3)C[C@H]12` [Compound B19] reads more than 1000 nM.
On the same count and under the same terms, the result for `COc1ccc(-c2ccc3c(c2)C(=O)N2CCN(C(=O)CC(C)(C)C)C[C@@H]2C(=O)N3)cc1` [Compound B25] reads more than 1000 nM; that for `CC(C)(C)CC(=O)N1CCN2C(=O)c3cc(-c4ccc(Cl)cc4)ccc3NC(=O)C2C1` (stereo not drawn) [Compound B26], 100 to 1000 nM; that for `O=C1Nc2ccc(-c3ccc(Cl)cc3)cc2C(=O)N2CCN(C(=O)c3ccccc3)CC12` (stereo not drawn) [Compound B27], more than 1000 nM.
